This is an account of results in US7829277B2, “Methods for identifying compounds that suppress chemically-induced carcinogenesis” (The Regents of the University of California, priority 2004, dated 2010).

In test [1] the test system is PC3 prostate cancer cells. The note with it: PC3 prostate cancer cells treated with genistein; cited from earlier work.
Test [2] has as its system nucleus. The conditions noted are these: after 18 hours of incubation; cited from earlier work.
Test [3] relates to female SENCAR mice. The note with it: topical application; cited from earlier work.
Test [4] deals with E1A-transfected C3H10T1/2 cells. The note with it: cited from earlier work.
Test [5] relates to p21/WAF1/Cip1 protein in cells transfected by the E1A oncogene. The note with it: not in untransfected control cells; cited from earlier work.
Test [6] relates to THBS1, PRKAR1A, TOB1, HIF1A mRNA in RWPE-1 and RWPE-2 cells. As to the kind of experiment: Real-time RT-PCR verification of selected genes. Format: cell-based, human. The note with it: RWPE-1 and RWPE-2 treated with 2 microMoles lunasin; normalized to β-actin. How it is done:
HIFIA-hypoxia-inducible factor 1, alpha subunit; PRKARIA-protein kinase, cAMP-dependent, regulatory, type I, alpha; TOB 1-transducer of ERBB2, 1; THSB 1-thrombospondin 1
Quantitative PCR. To confirm microarray data, the total RNA prepared for microarray analysis was used for RT-PCR analysis of selected genes. The cDNA used for quantitative PCR was synthesized from 3 μg of total RNA using the SuperScript First-Strand Synthesis for RT-PCR kit (Invitrogen), following manufacturer's recommendations. The cDNA was diluted 4-fold and 2 μl of cDNA was added to the quantitative PCR reaction using FAM-labeled TaqMan probes purchased from Applied Biosystems. The quantitative PCR reactions were performed in triplicate using a PRISM® ABI 7900HT Sequence Detection System (Applied Biosystems) and the expression of the β-actin gene (BACT) was used for normalization. Changes in expression were calculated using relative quantification as follows: ΔΔCt=ΔCtq−ΔCtcb; where Ct=the cycle number at which amplification rises above the background threshold, ΔCt=the change in Ct between two test samples, q=the target gene, and cb=the calibrator gene. Gene expression is then calculated as 2^−ΔΔ^Ct (Applied Biosystems).
A general note: Quantitative PCR measures a nucleic acid by following its amplification.

In test [7] the test system is E1A-transfected mouse fibroblast NIH 3T3 cells. The note with it: E1A-transfected NIH 3T3 cells; cited from earlier work.
For test [8], the system named is C3H 10T1/2 mouse embryo fibroblast cells. The note with it: lunasin added exogenously at nanomolar concentrations; cited from earlier work.
In test [9] the test system is normal prostate epithelial cells (RWPE-1). As to the kind of experiment: Microarray gene expression profile (Affymetrix Human Genome U133A) after lunasin treatment. Format: cell-based. The protocol:
(§1) Rostate epithelial cells, RWPE-1 (normal) and RWPE-2 (malignant) were cultivated in the Keratinocyte-Serum free medium with 5 ng/ml rEGF and 0.05 mg/ml bovine pituitary extract. Cells were grown to 70% confluence, after which, cells were harvested and transferred to a 150 mm^2 plate at a cell density of 1×10^7 cells/ml. Lunasin peptide was added to a final concentration of 2 μM. The cells were incubated for 24 hours after lunasin treatment. […] RWPE-1 and RWPE-2 cells that were not treated with lunasin served as negative controls.
(§2) Microarrray analysis. Total RNA from each treatment was isolated by Trizol (Invitrogen, Carlsbad, Calif.). The cDNA used in microarray analysis was synthesized from 10 μg of total RNA using the SuperScript Choice system (Invitrogen). The cDNA was then transcribed in vitro in the presence of biotin-labeled nucleotide triphophates using T7 RNA polymerase after phenol-chloroform extraction and ethanol precipitation. cRNA was purified using the RNeasy mini kit (Qiagen) and fragmented at 94° C. for 30 min in the buffer containing 0.2 M Tris-acetate (pH 8.1) 0.5 M potassium acetate, and 0.15 M magnesium acetate. Fragmented cRNA was hybridized overnight at 45° C. to the human genome U133A Genechips (Affymetrix) representing approximately 22,215 transcripts. Hybridization was then detected using a confocal laser scanner (Affymetrix). The gene expression levels of samples were normalized and analyzed using RMA analysis (Irizarry et al., 2003).

Test [10] has as its system malignant prostate epithelial cells (RWPE-2). The test is described as above. In kind it is cell-based. The protocol:
as §1, §2

Test [11] has as its target deacetylated histone H4 (Homo sapiens, UniProt P62805). The conditions noted are these: chemically synthesized lunasin; cited from earlier work.
In test [12] the test system is prostate cancer cell lines. The conditions noted are these: cited from earlier work.
Test [13] concerns normal prostate epithelial cells. The conditions noted are these: cited from earlier work.
[14] abbreviates: RWPE-1, 24 hour exposure to 2 micromolar lunasin.

Consider `O=c1c(-c2ccc(O)cc2)coc2cc(O)cc(O)c12` [genistein], for which, in test [1], the “gene expression regulation (microarray)” value was “regulates the expression of genes that are involved in control of cell growth, cell cycle, apoptosis, cell signaling, angiogenesis, tumor cell invasion and metastasis”.

In the case of lunasin, the subcellular localization entry in [2] is “localize in the nucleus”. Besides, in [3], the skin tumorigenesis entry is given as “inhibited skin tumorigenesis”. The apoptosis induction result in test [4] was “induce apoptosis”. Also, the p21/WAF1/Cip1 protein levels entry in test [5] is listed as “increased by five fold”. The “real-time RT-PCR mRNA level changes of THBS1, PRKAR1A, TOB1, HIF1A” value in test [6] was “consistent with the microarray data”. In addition, the foci formation entry in [7] is on record as “suppress foci formation”. For the same molecule, in [8], the “suppression of chemical carcinogen-induced (DMBA, MCA) foci formation” value was “Significant suppression”. Also, in test [9] (RWPE-1, 24 h lunasin), the genes down-regulated entry was “No genes were down-regulated”. Further, in test [9] (setting [14]), the “Fold-change BNIP3, NIP3 (BCL2/adenovirus E1B 19 kDa interacting prot. 3)” value is recorded as 2.05; the “Fold-change BUB1B, BUBR1” value is recorded as 2.23; the “Fold-change ERBB2IP, ERBIN (erbb2 interacting protein)” value was 2.23; the “Fold-change MAD2L1 (MAD2 mitotic arrest deficient-like 1)” value was 2.12. Moreover, in test [9] (setting [14]), the “Fold-change PORIMIN (pro-oncosis receptor inducing membrane injury gene)” value is 2.26; the “Fold-change PRKAR1A, PKA (protein kinase, cAMP-dependent, regulatory, type I, alpha)” value came to 2.45; the “Fold-change PRKCL2, PRK2 (protein kinase C-like 2)” value is listed as 2.33; the “Fold-change PSMC6 (proteasome 26S subunit, ATPase, 6)” value is 2.58. In addition, in [9] (setting [14]), the “Fold-change RANBP2 (RAN binding protein 2)” value is 2.36; the “Fold-change SMURF2 (E3 ubiquitin ligase SMURF2)” value came to 2.29; the “Fold-change SPTLC1 (serine palmitoyltransferase, long chain base subunit 1)” value amounted to 2.12; the “Fold-change THBS1, TSP1 (thrombospondin 1)” value was 2.05. Also, in test [9] (setting [14]), the “Fold-change TOB1 (transducer of ERBB2, 1)” value was found to be 2.32; the “Fold-change TTK (TTK protein kinase)” value was 2.08; the “Fold-change UBE1C (ubiquitin-activating enzyme E1C)” value is listed as 2.15; the “Fold-change USP1 (ubiquitin specific protease 1)” value is 2.23. Further, in test [9] (RWPE-1 and RWPE-2 together, of up to 22,215 genes screened, 24 h lunasin), the “total number of genes with a greater than twofold change in expression” value amounted to 123 genes. Further, in test [9] (RWPE-1 normal cells, 24 h exposure to lunasin peptide), the “number of genes up-regulated (greater than twofold)” value is listed as 121 genes. Further, in test [9] (microarray, lunasin treatment), the “BTB (POZ) containing domain 1 (ABTB1 or BPOZ) gene regulation (microarray)” value was “up-regulated”, the “SP3 gene regulation (microarray)” value was “up-regulated”, the “connexin 43 gap junction protein expression (microarray)” value is “up-regulates” and the “cyclin D1 regulation (microarray)” value is “do not show down regulation”. For the same molecule, in [9] (microarray, lunasin treatment), the “hypoxia-inducible factor-1α (HIF1-A) gene regulation (microarray)” value is on record as “up-regulated” and the “p21/WAF1/Cip1 transcript regulation (microarray)” value is listed as “did not show up-regulation”. Besides, in test [10] (RWPE-2, 24 h lunasin), the genes down-regulated entry was “No genes were down-regulated”. Also, in test [10] (RWPE-2 malignant cells, 24 h exposure to lunasin peptide), the “number of genes up-regulated (greater than twofold)” value turned out to be 2 genes. For the same molecule, the “binding to histone in vitro” value in test [11] is recorded as “preferentially binds deacetylated histone H4”.

B1: BBI: soybean derived serine protease inhibitor with anti-carcinogenic activity (protein, UniProt P01055 40-110, looked up)
Bowman-Birk type proteinase …: DDESSKPCCDQCACTKSNPPQCRCSDMRLNSCHSACKSCICALSYPAQCFCVDITDFCYEPCKPSEDDKEN
Regarding B1, the “growth, invasion and clonogenic survival of prostate cancer cell lines” value in [12] is “inhibited the growth, invasion and clonogenic survival”. Further, the “effect on normal prostate epithelial cells” value in test [13] is recorded as “no effect”.
